These results are taken from US20210030761A1, “TREATMENT AND PREVENTION OF ALPHA HERPES VIRUS INFECTION” (THE REGENTS OF THE UNIVERSITY OF COLORADO, a body corporate, priority 2018, published 2021).

For data set [1], the system named is quiescent uninfected spinal astrocytes. Description: Substance P treatment of uninfected spinal astrocytes: NK-1R distribution by immunofluorescence and process formation by CellTracker Deep Red. To be noted: 10^−6 M substance P for 60 minutes. In kind it is cell-based, human. Here is the method:
(§1) Cell Culture and Infection: Primary human spinal astrocytes (HA-sp; Sciencell, Carlsbad, Calif.) were seeded at 5,000 cells/cm' in a basal astrocyte medium containing 2% fetal bovine serum (FBS), 1% astrocyte growth supplement, and 1% 100× penicillin-streptomycin (Sciencell). After 24 hours, medium was changed to basal astrocyte medium containing 0.1% FBS and 1% 100× penicillin-streptomycin that was replenished every 72 hours for 7 days to establish quiescence. On day 7, spinal astrocytes were co-cultivated with VZV-infected spinal astrocytes (40 pfu/mL) or mock-infected spinal astrocytes. […] Light microscopy images to observe a cytopathic effect were obtained at 12, 24, 48 and 72 HPI followed by DNA extraction and PCR quantification of VZV DNA as described below. Substance P ELISA: Substance P was quantitated from mock- and VZV-infected HA-sp using a colorimetric competitive enzyme immunoassay kit according to the manufacturer's instructions (Enzo, Farmingdale, N.Y.). The sensitivity range was 9.76-10,000 pg/mL, as determined by controls run on the same assay as samples. Immunofluorescence Assay: HA-sp were propagated and treated as described above in an ibidi 24-well μ-Plate (ibidi, Martinsried, Germany). […] GFAP and NK-1R were detected using a 1:500 dilution of chicken anti-GFAP (Abcam) and a 1:100 dilution of rabbit anti-NK-1R (Novus Biologicals LLC, Littleton, Colo.), respectively. […]

For data set [2], the system named is VZV. Nature of the data set: Total VZV DNA in adult primary human perineurial cells (HPNCs). It counts as cell-based, varicella zoster virus. The settings on record: 72 HPI. The source says:
At 12, 24, 48, and 72 HPI, cells were visualized by light microscopy in the untreated and treated cultures and harvested for DNA.

Data set [3] relates to VZV-infected primary human spinal astrocytes (HA-sp). Description: Immunocytochemistry of cellular processes and NK-1R localization in VZV-infected HA-sp. It counts as cell-based. The settings on record: 3 DPI; 10 μM aprepitant; versus vehicle. The method, then: as §1
The subject of data set [4] is uninfected HA-sp. The settings on record: tested at 1-100 μM, data not shown. The method, then: as §1

Take substance P: the NK-1R localization entry in data set [1] was “detected predominantly in cytoplasm”. In addition, the lamellipodia formation entry in data set [1] (CellTracker Deep Red) was “lack of lamellipodia”.
As for `C[C@@H](OC[C@@]1(c2ccccc2)CC[C@]2(CCC(=O)N2)CN1)c1cc(C(F)(F)F)cc(C(F)(F)F)c1` [rolapitant], the “total VZV DNA” value in data set [2] (treated at 24 HPI) and in data set [2] (treated at time of infection) was “significantly reduced total VZV DNA” in each case.
With `C[C@@H](O[C@H]1OCCN(Cc2n[nH]c(=O)[nH]2)[C@H]1c1ccc(F)cc1)c1cc(C(F)(F)F)cc(C(F)(F)F)c1` [aprepitant], the “lamellipodia formation in VZV-infected cells” value in data set [3] was “reduction in lamellipodia formation”. For the same molecule, in data set [4], the “optimal concentration to avoid cell death” value worked out at 10 µM.
